From patent US11447469B2, “Hetero ring-fused phenyl compounds for inhibiting TNIK and medical uses thereof” (Korea Research Institute of Chemical Technology, priority 2018, dated 2022)

Assays:
TNIK [1] = target: T1, TNIK (Homo sapiens (Human), UniProt Q9UKE5); test: In vitro TNIK kinase assay using ADP-Glo Kinase Assay system; format: biochemical; conditions: 100 μM ATP, MBP substrate; for IC50: 37° C. 30 min; for inhibition at 1 µM: compound at 1 μM
Description: 2. Efficacy of Inhibiting TNIK Activity, In Vitro TNIK Kinase Assay Using ADP-Glo™ Kinase Assay System
The inhibitory properties of compounds were evaluated with TNIK kinase enzyme system and luminescent ADP-Glo ? Kinase Assay from Promega Corporation according to the manufacturer's protocol. The tested compounds were incubated with TNIK kinases. Reactions were performed in 10 μl kinase buffer supplemented with reaction mixture containing 2 μl ATP, 2 μl MBP protein and 2 μl TNIK at 37° C. for 30 min. After kinase reaction, 5 μl reaction mixtures were transferred to 384 well assay plate (Greiner, solid white low-binding plates). Next, 5 μl of ADP-Glo Reagent was added to each well and incubated at 37° C. for 30 min. After 45 min, 10 μl Kinase Detection Reagent was added to each well and luminescence signal was detected with the SpectraMax M5e Microplate Reader (Molecular Devices, Menlo Park, Calif.) after 30 min at 37° C. incubation. The IC50 values were calculated using GraphPad Prism software (GraphPad Software Inc., La Jolla, Calif., USA) to determine kit performance. To the cut-off assay, the inhibitory activity of the compounds against TNIK kinase was expressed as the percentage of the kinase inhibitory activity for an indicated concentration of inhibitor. The IC s of the compounds against TNIK kinase values were calculated a log-concentration-response curve fitted with a four-parameter logistic equation and expressed dose-response curve for % of inhibitory activity versus log of the compound concentration.

TNIK [2] = target: T1, TNIK; test: In vitro TNIK kinase assay using qPCR (competition binding with liganded affinity beads); conditions: compound at 1 μM; kinase in eluate measured by qPCR
Description: 1. Efficacy of Inhibiting TNIK Activity, In Vitro TNIK Kinase Assay Using qPCR
For most assays, kinase-tagged T7 phage strains were grown in parallel in 24-well blocks in an E. coli host derived from the BL21 strain. E. coli were grown to log-phase and infected with T7 phage from a frozen stock (multiplicity of infection=0.4) and incubated with shaking at 32° C. until (90-150 minutes). The lysates were centrifuged (6,000×g) and filtered (0.2 μm) to remove cell debris. The remaining kinases were produced in HEK-293 cells and subsequently tagged with DNA for qPCR detection. Streptavidin-coated magnetic beads were treated with biotinylated small molecule ligands for 30 minutes at room temperature to generate affinity resins for kinase assays. The liganded beads were blocked with excess biotin and washed with blocking buffer (SeaBlock (Pierce), 1% BSA, 0.05% Tween 20, 1 mM DTT) to remove unbound ligand and to reduce non-specific phage binding. Binding reactions were assembled by combining kinases, liganded affinity beads, and test compounds in 1× binding buffer (20% SeaBlock, 0.17×PBS, 0.05% Tween 20, 6 mM DTT). Test compounds were prepared as 40× stocks in 100% DMSO and directly diluted into the assay. All reactions were performed in polypropylene 384-well plates in a final volume of 0.04 ml.
The assay plates were incubated at room temperature with shaking for 1 hour and the affinity beads were washed with wash buffer (1×PBS, 0.05% Tween 20). The beads were then re-suspended in elution buffer (1×PBS, 0.05% Tween 20, 0.5 μM non-biotinylated affinity ligand) and incubated at room temperature with shaking for 30 minutes. The kinase concentration in the eluates was measured by qPCR.

SW480 cells = test: Cell viability assay (CCK-8) using SW480 cell; format: cell-based; conditions: Homo sapiens, 48 h exposure
Description: (§1) 3. Efficacy of Inhibiting Cancer Cells Using Colon Cancer Cell Lines
(§2) The human colon cancer cell line SW480 (Catalog No. CCL-228) and SW620 (Catalog No. CCL-227) were obtained from the American Type Culture Collection (ATCC), and maintained in DMEM (Thermo Fisher Scientific Inc., Waltham, Mass., USA) supplemented with 10% fetal bovine serum (FBS) (Thermo Fisher Scientific Inc., Waltham, Mass.), 100 U/ml penicillin, and 100 µg/ml streptomycin (Gibco, Gaithersburg, Md.). Cells were grown at 37° C. in 5% CO2 for confluence.
(§3) Cell viability was measured using the Cell Counting Kit-8 (Dojindo Molecular Technologies). SW480 and SW620 cells (2.5×10^4 cells/well) were seeded in 96-well plates and incubated for 24 h. After incubation, the cells were exposed to serially diluted compounds (0.1, 0.3, 1, 3, 10 and 30 µM) in 100 μl phenol free DMEM medium containing 0.1% FBS. After 48 h, CCK-8 reagent was added at 10 μl per well and incubated for 1 h at 37° C. Optical density was measured at 450 nm using a microplate reader (Bio-Rad Laboratories, Hercules, Calif.). The IC50 values were calculated using GraphPad Prism software (GraphPad Software Inc., La Jolla, Calif., USA) to determine kit performance. Experiments were performed in triplicate.

SW620 cells = test: Cell viability assay (CCK-8) using SW620 cell; format: cell-based; conditions: Homo sapiens, SW-620, 48 h exposure
Description: as §1, §2, §3

T1 sequence (Q9UKE5 whole entry): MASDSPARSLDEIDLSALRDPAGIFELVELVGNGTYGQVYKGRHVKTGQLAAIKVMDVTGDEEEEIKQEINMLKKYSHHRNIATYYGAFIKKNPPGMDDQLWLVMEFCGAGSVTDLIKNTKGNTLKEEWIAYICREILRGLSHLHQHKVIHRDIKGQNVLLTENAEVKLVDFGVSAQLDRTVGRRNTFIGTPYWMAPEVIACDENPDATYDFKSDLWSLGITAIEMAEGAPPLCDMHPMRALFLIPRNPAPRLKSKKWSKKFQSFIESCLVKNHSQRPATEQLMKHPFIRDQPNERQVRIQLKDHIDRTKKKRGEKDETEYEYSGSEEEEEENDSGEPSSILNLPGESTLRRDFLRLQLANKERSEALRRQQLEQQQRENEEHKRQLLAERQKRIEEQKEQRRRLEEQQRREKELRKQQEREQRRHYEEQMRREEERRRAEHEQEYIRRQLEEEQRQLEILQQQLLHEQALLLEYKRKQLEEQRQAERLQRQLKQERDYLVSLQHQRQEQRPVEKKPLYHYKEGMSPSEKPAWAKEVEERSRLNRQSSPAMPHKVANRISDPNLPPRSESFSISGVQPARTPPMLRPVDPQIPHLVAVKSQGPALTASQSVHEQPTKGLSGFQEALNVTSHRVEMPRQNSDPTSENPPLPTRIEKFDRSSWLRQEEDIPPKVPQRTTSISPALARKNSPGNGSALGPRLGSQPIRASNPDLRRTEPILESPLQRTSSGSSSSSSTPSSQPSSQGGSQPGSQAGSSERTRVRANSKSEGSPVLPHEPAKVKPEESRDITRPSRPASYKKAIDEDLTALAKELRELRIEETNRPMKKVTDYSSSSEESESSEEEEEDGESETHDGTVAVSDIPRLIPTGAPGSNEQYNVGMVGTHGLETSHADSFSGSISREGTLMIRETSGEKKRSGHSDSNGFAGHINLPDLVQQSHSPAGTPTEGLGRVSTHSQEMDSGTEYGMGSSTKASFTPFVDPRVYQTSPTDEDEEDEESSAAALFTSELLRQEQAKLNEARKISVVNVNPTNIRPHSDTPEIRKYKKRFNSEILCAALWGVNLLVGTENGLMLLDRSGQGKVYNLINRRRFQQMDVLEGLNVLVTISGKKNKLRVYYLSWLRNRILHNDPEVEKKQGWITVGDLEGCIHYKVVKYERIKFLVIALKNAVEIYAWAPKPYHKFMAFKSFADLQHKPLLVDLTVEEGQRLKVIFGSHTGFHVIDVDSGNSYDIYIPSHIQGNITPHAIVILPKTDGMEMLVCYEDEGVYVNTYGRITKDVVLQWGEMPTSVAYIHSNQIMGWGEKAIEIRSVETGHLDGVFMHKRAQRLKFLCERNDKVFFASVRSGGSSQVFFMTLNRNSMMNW

| SMILES | IC50 (TNIK [1]) [nM] | inhibition at 1 µM (TNIK [1]) [%] | activity at 1 µM (TNIK [2]) [%] | IC50 (SW480 cells) [µM] | IC50 (SW620 cells) [µM] |
| --- | --- | --- | --- | --- | --- |
| COc1ccc(-c2cc(Nc3ccc4cn[nH]c4c3)n[nH]2)cc1 [Compound 4, N-(5-(4-methoxyphenyl)-1H-pyrazol-3-yl)-1H-indazol-6-amine] | – | – | 8 | – | – |
| COc1ccc(-c2cc(Nc3ccc4[nH]ncc4c3)n[nH]2)cc1 [Compound 2, N-(5-(4-methoxyphenyl)-1H-pyrazol-3-yl)-1H-indazol-5-amine] | 94 | 99 | 21 | 4.5 | 1.2 |
| O=C1COc2cc(Nc3cc(-c4ccc(O)cc4)[nH]n3)ccc2N1 [Compound 14, 7-((5-(4-hydroxyphenyl)-1H-pyrazol-3-yl)amino)-2H-benzo[b][1,4]oxazin-3(4H)-one] | – | 97 | – | – | – |
| Cc1nc2cc(Nc3cc(-c4ccc(-n5cccn5)cc4)[nH]n3)ccc2[nH]1 [Compound 18, N-(5-(4-(1H-pyrazol-1-yl)phenyl)-1H-pyrazol-3-yl)-2-methyl-1H-benzo[d]imidazol-5-amine] | 96 | 99 | – | 21 | 3.4 |
| COc1ccc(-c2cc(Nc3ccc4[nH]c(=O)[nH]c4c3)n[nH]2)cc1 [Compound 3, 5-((5-(4-methoxyphenyl)-1H-pyrazol-3-yl)amino)-1,3-dihydro-2H-benzo[d]imidazol-2-one] | – | 79 | 7 | – | – |
| COc1ccc(-c2cc(Nc3ccc4[nH]ccc4c3)n[nH]2)cc1 [Compound 1, N-(5-(4-methoxyphenyl)-1H-pyrazol-3-yl)-1H-indol-5-amine] | – | – | 16 | – | – |

Next, values leading:

| IC50 (TNIK [1]) [nM] | inhibition at 1 µM (TNIK [1]) [%] | activity at 1 µM (TNIK [2]) [%] | IC50 (SW480 cells) [µM] | IC50 (SW620 cells) [µM] | SMILES |
| --- | --- | --- | --- | --- | --- |
| 55 | 99 | – | – | – | c1cnn(-c2ccc(-c3cc(Nc4ccc5[nH]ncc5c4)n[nH]3)cc2)c1 [Compound 10, N-(5-(4-(1H-pyrazol-1-yl)phenyl)-1H-pyrazol-3-yl)-1H-indazol-5-amine] |
| 62 | 96 | – | – | – | O=C1CCc2cc(Nc3cc(-c4ccc(O)cc4)[nH]n3)ccc2N1 [Compound 6, 6-((5-(4-hydroxyphenyl)-1H-pyrazol-3-yl)amino)-3,4-dihydroquinolin-2(1H)-one] |
| 1 | 88 | – | – | – | O=C1Cc2cc(Nc3cc(-c4ccc(O)c(F)c4)[nH]n3)ccc2N1 [Compound 8, 5-((5-(3-fluoro-4-hydroxyphenyl)-1H-pyrazol-3-yl)amino)indolin-2-one] |
| 7 | 90 | – | – | – | O=C1COc2cc(Nc3cc(-c4ccc(-n5cccn5)cc4)[nH]n3)ccc2N1 [Compound 13, 7-((5-(4-(1H-pyrazol-1-yl)phenyl)-1H-pyrazol-3-yl)amino)-2H-benzo[b][1,4]oxazin-3(4H)-one] |
| 1 | – | – | – | – | O=C1CCc2cc(Nc3cc(-c4ccc(-n5cccn5)cc4)[nH]n3)ccc2N1 [Compound 7, 6-((5-(4-(1H-pyrazol-1-yl)phenyl)-1H-pyrazol-3-yl)amino)-3,4-dihydroquinolin-2(1H)-one] |
| 45 | 93 | – | – | 13 | Oc1ccc(-c2cc(Nc3ccc4[nH]ncc4c3)n[nH]2)cc1F [Compound 12, 4-(3-((1H-indazol-5-yl)amino)-1H-pyrazol-5-yl)-2-fluorophenol] |
| 1 | 98 | – | – | – | O=C1CCc2cc(Nc3cc(-c4ccc(-n5ccnc5)cc4)[nH]n3)ccc2N1 [Compound 9, 6-((5-(4-(1H-imidazol-1-yl)phenyl)-1H-pyrazol-3-yl)amino)-3,4-dihydroquinolin-2(1H)-one] |
| 29 | 94 | – | – | – | Oc1ccc(-c2cc(Nc3ccc4[nH]ncc4c3)n[nH]2)cc1 [Compound 11, 4-(3-((1H-indazol-5-yl)amino)-1H-pyrazol-5-yl)phenol] |
